From patent US11358965B2, “EGFR dimer disruptors and use of the same” (THE REGENTS OF THE UNIVERSITY OF MICHIGAN, priority 2018, dated 2022)

Columns and labels:
K-562 = assay: NCI 60 cell line screen, K-562; assay type: cell-based, human; conditions: Leukemia
Experimental: (§1) The activity of Compound 8C was tested against 60 different human tumor cell lines at the National Cancer Institute, using the standard NCI 60 screening protocol.

MDA-MB-231/ATCC = assay: NCI 60 cell line screen, MDA-MB-231/ATCC; assay type: cell-based, human; conditions: Breast Cancer
Experimental: as §1

Preliminary safety test = assay type: in vivo, C57BL6 mice; conditions: daily dose of 30 mg/kg for one week
Experimental: A preliminary test on the safety of a daily dose of 30 mg/kg for one week was performed using C57BL6 mice. The overall health and weight of a group of 6 mice was monitored during treatment. A modest loss of 3.5±2.4% body weight after one week of treatment was observed, but mice fully recovered the weight 2-days after treatment cessation.

MCF7 = assay: NCI 60 cell line screen, MCF7; assay type: cell-based, human; conditions: Breast Cancer
Experimental: as §1

HT29 = assay: NCI 60 cell line screen, HT29; assay type: cell-based, human; conditions: Colon Cancer
Experimental: as §1

[1] = target: T1, purified wild-type EGFR kinase domain (Homo sapiens, UniProt P00533); assay: Thermal stability assay of purified EGFR; assay type: binding; conditions: 10 μM
T1 construct: WT-EGFR kinase domain (aa696-1022, active kinase); made in house; host or cells: SF9 insect cells
Experimental: The samples were subjected to heat inactivation (20 to 44° C.) for 3 minutes. The soluble fraction was separated from aggregate by centrifugation at 13,000 RPM at 4° C. for 10 minutes. […] The EGFR band intensity as quantified by ImageJ software and plotted (see FIG. 5B). […] The soluble fraction of EGFR was quantified and plotted as described above (see FIG. 5C).
After cooling, the samples were centrifuged, and the soluble protein fraction was collected and resolved using immunoblotting with anti-EGFR antibodies (see FIG. 6A).

MALME-3M = assay: NCI 60 cell line screen, MALME-3M; assay type: cell-based, human; conditions: Melanoma
Experimental: as §1

Microsomal half-life = assay type: in vitro ADME; conditions: microsomes
[2] = test system: isogenic 6-Ba/F3 cell types (TKI sensitive and resistant); assay: Activity in isogenic Ba/F3 cell types
LOX IMVI = assay: NCI 60 cell line screen, LOX IMVI; assay type: cell-based, human; conditions: Melanoma
Experimental: as §1

MDA-MB-468 = assay: NCI 60 cell line screen, MDA-MB-468; assay type: cell-based, human; conditions: Breast Cancer
Experimental: as §1

COLO 205 = assay: NCI 60 cell line screen, COLO 205; assay type: cell-based, human; conditions: Colon Cancer
Experimental: as §1

786-0 = assay: NCI 60 cell line screen, 786-0; assay type: cell-based, human; conditions: Renal Cancer
Experimental: as §1

[3] = Pharmacokinetics in tumor and plasma, NCI-H1975 xenograft mice; assay type: in vivo, nude mice; conditions: for half-life: nude, mouse, ip
Experimental: The IC50 and IC90 for PC9-AZR, and HCC827-AZR, range from ˜1.5 to ˜4 μM (see FIG. 7A). It is interesting to note that the peak plasma concentration was 5.4±1.5 μM for 30 minutes. […] Prolonged drug accumulation in tumors despite rapid systemic clearance is ideal for therapeutic use. The data at the 24 hour time point indicate that the agent may be suitable for daily administration. After observing selective accumulation of Compound 8C in tumors injected i.p., it was determined if Compound 8C is orally available. For oral administration, Compound 8C was formulated in 20% tween 80 in PBS (v/v) after brief sonication. Mice received 100 mg/kg by oral gavage. The concentrations of Compound 8C in tumor and plasma samples at 7 hours, 15 hours and 24 hours were determined and are plotted in FIG. 8B.
For intraperitoneal injection Compound 8C was formulated at 10 mg/mL in PBS with 5% DMSO by adjusting the pH to 5.5. For oral administration, a homogenous suspension was prepared in 20% tween 80 upon brief sonication. Initially, a single 100 mg/kg dose of Compound 8C was given i.p. (FIG. 8A) or gavaged into nude mice bearing human NCI-H1975 tumor xenografts (>150 mm3) (FIG. 8B). Mice were euthanized at time 0, 30 minutes, 1 hour, 3 hours, 7 hours, 15 hours, and at 24 hours. Tumor and plasma samples were collected. In case of mice orally gavaged, plasma and tumor samples were collected only at 7 hours, 15 hours and at 24 hours. The concentration of Compound 8C in plasma and tumor was determined and the resulting data are plotted in terms of molar concentration.

UACC-62 = assay: NCI 60 cell line screen, UACC-62; assay type: cell-based, human; conditions: Melanoma
Experimental: as §1

PC9-AZR = assay: Clonogenic survival assay, PC9-AZR; assay type: cell-based; conditions: read-out: IC50 and IC90
EGFR = assay: EGF-induced EGFR dimerization and EGFR degradation in PC9-AZR cells; assay type: cell-based; conditions: 1 μM, 1 hour, then EGF 30 ng/ml
Experimental: It was determined if the response to Compound 8C correlates with inhibition of EGF-induced dimerization and degradation of EGFR. For this, PC9-AZR cells were treated for 1 hour with 1 μM Compound 8C and an additional 30 minutes with EGF (30 ng/ml) and 30 minutes with disuccinimidyl suberate (DSS, 150 μM) to cross-link interacting proteins. Lysates were prepared and immunoblotted with anti-EGFR antibodies.

[4] = Stability in mouse liver microsomes; assay type: in vitro ADME
[5] = test system: PanIn (Pancreatic Intraepithelial Neoplasia); assay: Pancreatic tumor model (KC mice), PanIn; assay type: in vivo; conditions: oral gavage, 30 mg/kg body weight, daily
Experimental: 6-week old KC mice were treated with Compound 8C via oral gavage (30 mg/kg body weight, daily).

UMSCC74B = UMSCC74B xenografts, oral gavage twice weekly; assay type: in vivo, mouse; conditions: 30 mg/kg, vs untreated and cetuximab controls
Experimental: Mouse xenographs of UMSCC74B, a head and neck tumor cell line, were treated with Compound 8C via oral gavage (30 mg/kg body weight, twice weekly).

HCC827-AZR = assay: Clonogenic survival assay, HCC827-AZR; assay type: cell-based; conditions: read-out: IC50 and IC90

T1 sequence (P00533 696-1022): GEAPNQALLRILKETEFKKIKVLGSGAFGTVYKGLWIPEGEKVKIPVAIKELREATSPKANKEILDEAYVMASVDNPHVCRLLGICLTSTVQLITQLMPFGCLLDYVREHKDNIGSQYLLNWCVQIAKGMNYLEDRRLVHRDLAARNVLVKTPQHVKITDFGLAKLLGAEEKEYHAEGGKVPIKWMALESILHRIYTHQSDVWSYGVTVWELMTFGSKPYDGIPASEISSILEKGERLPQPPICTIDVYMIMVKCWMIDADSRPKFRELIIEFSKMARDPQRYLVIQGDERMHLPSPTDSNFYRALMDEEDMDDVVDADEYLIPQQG

CN1CCC2(CC1)N=C(SCC(=O)Nc1cnc3ccccc3c1)C(c1ccc(Br)cc1)=N2 [Compound 8C, 2-((3-(4-bromophenyl)-8-methyl-1,4,8-triazaspiro[4.5]deca-1,3-dien-2-yl)thio)-N-(quinolin-3-yl)acetamide]
Percent Growth (K-562): −61.5%
Percent Growth (MDA-MB-231/ATCC): −40.5%
loss of body weight after one week of treatment (Preliminary safety test): 3.5±2.4%
time to full weight recovery after treatment cessation (Preliminary safety test): 2 days
Percent Growth (MCF7): −42.7%
Percent Growth (HT29): −67.1%
effect on melting curve / melting temperature of purified WT-EGFR [1]: shifts the melting curve
Percent Growth (MALME-3M): −75.5%
half-life (Microsomal half-life): > 0.767 h
activity in each Ba/F3 cell line [2]: active in the nanomolar range
Percent Growth (LOX IMVI): −78.5%
Percent Growth (MDA-MB-468): −43.8%
Percent Growth (COLO 205): −76.2%
Percent Growth (786-0): −81.7%
peak plasma concentration ([3]; 100 mg/kg i.p., single dose, for 30 minutes): 5.4 ± 1.5 µM
peak concentration achieved in the tumor ([3]; 100 mg/kg i.p., single dose, for ≥7 hours): 69.7 ± 15.68 µM
tumor accumulation ([3]; i.p. injection): selectively accumulates in the tumor
half-life ([3]; plasma, 100 mg/kg i.p., single dose, read-out: plasma half-life (converted)): 7.96 h
half-life ([3]; tumor, 100 mg/kg i.p., single dose, read-out: half-life in the tumor): > 24 h
Percent Growth (UACC-62): −78.9%
IC50 (PC9-AZR): 1.5 to 4 µM
EGFR dimerization and degradation of EGFR (EGFR): can inhibit EGFR dimerization and induce degradation of EGFR
stability compared to pre lead (C95) [4]: approximately 20 times
propensity for developing PanIn [5]: significantly reduced propensity
tumor volume (UMSCC74B): significantly reduced tumor volume
IC50 (HCC827-AZR): 1.5 to 4 µM
